Some results are limits rather than exact numbers.

What all share (type): cell-based
Assay [1] has as its target T1, hAT1R (Homo sapiens, UniProt P30556).
T1 sequence (P30556 1-359): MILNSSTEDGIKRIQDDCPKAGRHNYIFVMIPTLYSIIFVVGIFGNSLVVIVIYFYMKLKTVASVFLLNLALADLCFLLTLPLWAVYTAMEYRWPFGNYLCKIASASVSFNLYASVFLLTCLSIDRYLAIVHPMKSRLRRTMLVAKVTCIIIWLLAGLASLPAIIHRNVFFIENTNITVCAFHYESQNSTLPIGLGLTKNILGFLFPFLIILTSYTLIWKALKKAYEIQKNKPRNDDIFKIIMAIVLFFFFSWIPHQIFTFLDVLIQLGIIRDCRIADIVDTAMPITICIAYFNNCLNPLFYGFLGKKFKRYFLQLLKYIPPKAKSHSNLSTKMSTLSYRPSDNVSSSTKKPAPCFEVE
Description: BRET Gq biosensor assay, agonist response, HEK293 cells. The conditions noted are these: section of the 42nd table directly before the BRET P63 section. In a few lines:
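Agonist EC50 derived from a 4-parameter fit of BRET2 ratio (GFP 515 nm/Rluc 410 nm), scaled between unstimulated control and maximal AngII response. Readings taken 5 min after compound addition at room temperature, with 2 μM coelenterazine, in HEK293 cells expressing hAT1R, Gαq-Rluc, Gβ1 and GFP-Gγ1 (transfected two days earlier).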

The target in the next assay is T2, AGTR1 (Homo sapiens, UniProt P30556).
T2 construct: host or cells: Pathunter CHO-K1 AGTR1 β-arrestin cell line (CHO-K1)
T2 sequence (P30556 1-359): T1 sequence (P30556 1-359)
Description: DiscoveRx β-arrestin2 recruitment assay (enzyme complementation, Pathunter CHO-K1 AGTR1 β-arrestin cell line). As to conditions: DiscoveRx β-arrestin2 recruitment. In a few lines: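 Chemiluminescent enzyme-complementation read-out of β-arrestin2 recruitment to AGTR1 in engineered CHO-K1 cells after 90 min compound exposure at 37° C. Values are 4-parameter logistic EC50s in agonist mode, IC50s in antagonist mode, with efficacy relative to the maximal All response.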
A general note: Recruitment of arrestin is a read-out of receptor activation apart from second messengers.

Assay [2] deals with T1, hAT1R. Description: BRET β-arrestin2 biosensor assay, higher receptor expression (hAT1R 5 ng/well), HEK293 cells. As to conditions: for EC50: High AT1R Expression. In general terms: In BRET a luciferase serves as donor, and the signal depends on an acceptor being close.

For `CCCc1nc(CC)c(C(=O)O)n1Cc1ccc(-c2cc(-c3ccccc3)ccc2C(=O)O)cc1` [Example 400, 1-((6′-carboxy-[1,1′:3′,1″-terphenyl]-4-yl)methyl)-4-ethyl-2-propyl-1H-imidazole-5-carboxylic acid], the EC50 (in general, the concentration that produces a half-maximal response) turned out to be 892 nM on hAT1R [1], 150 nM at AGTR1 and 172 nM at hAT1R [2]. Moreover, at AGTR1 (maximal response), the “DiscoveRx β-arrestin2 Ymax (%)” value was determined as 40.4%. At hAT1R [2], the “BRET β-Arrestin2 High AT1R Expression Ymax (%)” value is on record as 88.3%.

`CCCCC(=O)N(Cc1ccc(-c2cc(-c3cnn(C)c3)ccc2-c2nn[nH]n2)cc1)C1(C(=O)O)CCCCC1` [Example 288, 1-(N-((5′-(1-Methyl-1H-pyrazol-4-yl)-2′-(2H-tetrazol-5-yl)-[1,1′-biphenyl]-4-yl)methyl)pentanamido)cyclohexanecarboxylic acid]: the EC50 on hAT1R [1] was over 100000 nM; at AGTR1, 186 nM; at hAT1R [2], 474 nM. Further, the “DiscoveRx β-arrestin2 Ymax (%)” value on AGTR1 (maximal response) is recorded as 29.6%. For the same molecule, at hAT1R [2], the “BRET β-Arrestin2 High AT1R Expression Ymax (%)” value was found to be 69.2%.

In the case of `CCCCc1ncc(C(=O)NCCC(C)C)n1Cc1ccc(-c2cc(-c3ccccc3)ccc2-c2nn[nH]n2)cc1` [Example 366], the EC50 is 42.9 nM at hAT1R [1], 11.1 nM at AGTR1 and 27.4 nM at hAT1R [2]. The “DiscoveRx β-arrestin2 Ymax (%)” value on AGTR1 (maximal response) is listed as 37.0%. Besides, on hAT1R [2], the “BRET β-Arrestin2 High AT1R Expression Ymax (%)” value was 78.7%.

For the molecule `CCCCC(=O)N(Cc1ccc(-c2cc(-c3ccc4ncccc4c3)ccc2-c2nn[nH]n2)cc1)C1(C(=O)O)CCCCC1` [Example 292], the EC50 on hAT1R [1] is over 100000 nM; on AGTR1, 177 nM; on hAT1R [2], 72.2 nM. The “DiscoveRx β-arrestin2 Ymax (%)” value on AGTR1 (maximal response) is 32.1%. In addition, the “BRET β-Arrestin2 High AT1R Expression Ymax (%)” value at hAT1R [2] was 36.5%.

On to `CCCCC(=O)N(Cc1ccc(-c2cc(-c3ccccc3)ccc2-c2noc(=O)[nH]2)cc1)C1(C(=O)OC)CCCCC1` [Example 280, Methyl 1-(N-((6′-(5-oxo-4,5-dihydro-1,2,4-oxadiazol-3-yl)-[1,1′:3′,1″-terphenyl]-4-yl)methyl)pentanamido)cyclohexanecarboxylate], for which the figures for the concentration giving a half-maximal response (EC50) at hAT1R [1], at AGTR1 and at hAT1R [2] were 2870 nM, 904 nM and 699 nM, respectively. Also, the “DiscoveRx β-arrestin2 Ymax (%)” value at AGTR1 (maximal response) was determined as 35.2%. Also, at hAT1R [2], the “BRET β-Arrestin2 High AT1R Expression Ymax (%)” value was found to be 75.7%.

In the case of `CCCc1nc(C(C)(C)O)c(C(=O)O)n1Cc1ccc(-c2cc(-c3ccccc3)ccc2-c2nn[nH]n2)cc1` [Example 402, sodium 1-((6′-(2H-tetrazol-5-yl)-[1,1′:3′,1″-terphenyl]-4-yl)methyl)-4-(2-hydroxypropan-2-yl)-2-propyl-1H-imidazole-5-carboxylate], the EC50 at hAT1R [1] was found to be 64.9 nM; on AGTR1, 9.9 nM; at hAT1R [2], 17.9 nM. Also, the “DiscoveRx β-arrestin2 Ymax (%)” value on AGTR1 (maximal response) turned out to be 57.0%. Further, the “BRET β-Arrestin2 High AT1R Expression Ymax (%)” value on hAT1R [2] is listed as 77.8%.

With `CCCCc1nc(Cl)c(C(N)=O)n1Cc1ccc(-c2cc(-c3ccccc3)ccc2-c2nn[nH]n2)cc1` [Example 393, 1-((6′-(2H-tetrazol-5-yl)-[1,1′:3′,1″-terphenyl]-4-yl)methyl)-2-butyl-4-chloro-1H-imidazole-5-carboxamide], the concentration giving a half-maximal response (EC50) at hAT1R [1] was 48.8 nM; on AGTR1, 9.1 nM; at hAT1R [2] it was 12 nM. The “DiscoveRx β-arrestin2 Ymax (%)” value at AGTR1 (maximal response) stood at 41.2%. For the same molecule, on hAT1R [2], the “BRET β-Arrestin2 High AT1R Expression Ymax (%)” value amounted to 86.1%.

As to `CCCCC(=O)N(Cc1ccc(-c2cc(-c3ccccc3)ccc2-c2nn[nH]n2)cc1)C1(C(=O)O)CCC(C)(C)CC1` [Example 275, 1-(N-((6′-(2H-Tetrazol-5-yl)-[1,1′:3′,1″-terphenyl]-4-yl)methyl)pentan-amido)-4,4-dimethylcyclohexanecarboxylic acid], the EC50 is over 100000 nM at hAT1R [1], 26.6 nM at AGTR1 and 21.5 nM at hAT1R [2]. Besides, the “DiscoveRx β-arrestin2 Ymax (%)” value at AGTR1 (maximal response) is 50.9%. The “BRET β-Arrestin2 High AT1R Expression Ymax (%)” value on hAT1R [2] is listed as 71.5%.

With `CCCCc1nc(Cl)c(C(=O)O)n1Cc1ccc(-c2cc(-c3cnn(C(F)F)c3)ccc2-c2nn[nH]n2)cc1` [Example 387], the results for the concentration for a half-maximal effect (EC50) at hAT1R [1], on AGTR1 and at hAT1R [2] were 3420 nM, 16.6 nM and 18.2 nM, respectively. Further, the “DiscoveRx β-arrestin2 Ymax (%)” value at AGTR1 (maximal response) is 32.8%. The “BRET β-Arrestin2 High AT1R Expression Ymax (%)” value at hAT1R [2] is listed as 81.9%.

Regarding `CC(C)CCC(=O)N(Cc1ccc(-c2cc(-c3ccccc3)ccc2-c2nn[nH]n2)nc1)[C@H](C(=O)O)C(C)C` [Example 433], the half-maximal effective concentration (EC50) on hAT1R [1] worked out at 581 nM. In addition, at AGTR1, the “DiscoveRx β-arrestin2 Ymax (%)” value is recorded as 49.6% and the 50% effective concentration (EC50) was found to be 59.1 nM. Further, at hAT1R [2], the “BRET β-Arrestin2 High AT1R Expression Ymax (%)” value is reported as 92.4% and the 50% effective concentration (EC50) is 115 nM.

In the case of `CCCCC(=O)N(Cc1ccc(-c2cc(-c3ccccc3)ccc2-c2nn[nH]n2)nc1)C1(C(=O)O)CCCCC1` [Example 273], the values for the half-maximal effective concentration (EC50) at hAT1R [1], on AGTR1 and at hAT1R [2] were 155 nM, 21.4 nM and 23.2 nM, respectively. Moreover, the “DiscoveRx β-arrestin2 Ymax (%)” value at AGTR1 (maximal response) stood at 39.3%. Moreover, the “BRET β-Arrestin2 High AT1R Expression Ymax (%)” value on hAT1R [2] was found to be 88.1%.

Consider `CCCCc1ncc(C(=O)NC2CCCC2)n1Cc1ccc(-c2cc(-c3ccccc3)ccc2-c2nn[nH]n2)cc1` [Example 377], for which the figures for the half-maximal effective concentration (EC50) at hAT1R [1], at AGTR1 and at hAT1R [2] were 146 nM, 49.5 nM and 25.4 nM, respectively. The “DiscoveRx β-arrestin2 Ymax (%)” value on AGTR1 (maximal response) turned out to be 39.0%. The “BRET β-Arrestin2 High AT1R Expression Ymax (%)” value at hAT1R [2] amounted to 80.9%.

Take `CCCCC(=O)N(Cc1ccc(-c2cc(Oc3cccc(OC(F)(F)F)c3)ccc2-c2nn[nH]n2)cc1)C1(C(=O)O)CCCCC1` [Example 287]: the 50% effective concentration (EC50) was over 100000 nM on hAT1R [1], 175 nM on AGTR1 and 54.1 nM on hAT1R [2]. Besides, the “DiscoveRx β-arrestin2 Ymax (%)” value at AGTR1 (maximal response) is on record as 30.5%. Besides, the “BRET β-Arrestin2 High AT1R Expression Ymax (%)” value on hAT1R [2] amounted to 45.9%.

Take `CCCCC(=O)N(Cc1ccc(-c2cc(Oc3ccccc3)ccc2-c2nn[nH]n2)cc1)C1(C(=O)O)CCCCC1` [Example 285, 1-(N-((5′-Phenoxy-2′-(2H-tetrazol-5-yl)-[1,1′-biphenyl]-4-yl)methyl)pentanamido)cyclohexanecarboxylic acid]: the 50% effective concentration (EC50) at hAT1R [1] amounted to 1540 nM; on AGTR1, 66.4 nM; on hAT1R [2], 57.3 nM. At AGTR1 (maximal response), the “DiscoveRx β-arrestin2 Ymax (%)” value was 24.8%. Moreover, the “BRET β-Arrestin2 High AT1R Expression Ymax (%)” value at hAT1R [2] is given as 33.4%.

`CCCc1nc(CC)c(C(=O)OCC)n1Cc1ccc(-c2cc(-c3ccccc3)ccc2-c2nn[nH]n2)cc1` [Example 395, ethyl 1-((6′-(2H-tetrazol-5-yl)-[1,1′:3′,1″-terphenyl]-4-yl)methyl)-4-ethyl-2-propyl-1H-imidazole-5-carboxylate]: the EC50 on hAT1R [1] was determined as 12.7 nM; on AGTR1, 16.1 nM; at hAT1R [2] it was 20.4 nM. Further, at AGTR1 (maximal response), the “DiscoveRx β-arrestin2 Ymax (%)” value worked out at 54.1%. Further, the “BRET β-Arrestin2 High AT1R Expression Ymax (%)” value on hAT1R [2] was 92.4%.

Turning to `CCCCc1ncc(C(=O)Nc2ccncc2)n1Cc1ccc(-c2cc(-c3ccccc3)ccc2-c2nn[nH]n2)cc1` [Example 353], the results for the EC50 on hAT1R [1], on AGTR1 and at hAT1R [2] were 566 nM, 55 nM and 65.5 nM, respectively. The “DiscoveRx β-arrestin2 Ymax (%)” value at AGTR1 (maximal response) is given as 22.4%. On hAT1R [2], the “BRET β-Arrestin2 High AT1R Expression Ymax (%)” value was 49.1%.

These data come from US12037324B2, “Biarylmethyl heterocycles” (Université de Montréal, priority 2016, dated 2024).
